Read-outs that look alike come from different tables or passages of the source. Values belong to the molecule of their own block, whether it stands above or below them.
How the values were obtained:
[1] = system: humans with elevated blood levels of phenylalanine (>600 μmol/L); test: Open label single ascending oral dose study of 6R-BH4, blood Phe before and 24 hours after each dose; assay type: in vivo
Text: (§1) Criteria for inclusion in the study included (1) baseline blood Phe levels of >600 μmol/L, (2) age of at least 8 years. Criteria for exclusion from the study included (1) pregnancy or breastfeeding, (2) concurrent diseases or conditions that require medication or treatment, (3) concurrent treatment with any drug known to inhibit folate synthesis, and (4) treatment with any investigational drug within 30 days. Each of the patients also was identified as having a mutation in the phenylalanine hydroxylase (PAH) gene. Study subjects underwent baseline assessments, including medical history with assessment of phenylketonuria (PKU) or hyperphenylalaninemia (HPA) related signs and symptoms, physical examinations, vital signs, serum amino acid (i.e., phenylalanine, tyrosine, and tryptophan) blood levels, and routine laboratory tests (chemistry, hematology, and urinalysis) before inclusion in the study.
Within a maximum of 4 weeks following the completion of baseline assessments, eligible subjects began the first stage of the study. Single ascending doses of 10 mg/kg, 20 mg/kg and 40 mg/kg of 6R-BH4 were administered orally, with a washout period of at least 7 days between each dose, and subjects were monitored 24 hours after each dose. Subjects underwent a safety assessment and blood amino acid (i.e, phenylalanine, tyrosine, and tryptophan) level measurements before and 24 hours after each 6R-BH4 dose. Blood pressure was measured 30 minutes and 1 hour after each dose. Safety assessments included physical examinations, vital signs, serial assessment of PKU or HPA related signs and symptoms, recording of adverse events, and monitoring of changes in laboratory parameters (chemistry, hematology, and urinalysis). Subjects were instructed to continue their usual diet without any modification, and to record daily intake of food and beverages throughout the study.

[2] = system: humans with elevated blood levels of phenylalanine (>600 μmol/L); test: Multiple dose study (7-day loading test), 6R-BH4 daily for 7 days, blood Phe and tyrosine; assay type: in vivo
Text: as §1
After the first stage of the study was completed, subjects entered the second stage of the study, during which they received 10 mg/kg of 6R-BH4 daily in an oral dosage form, for a total of 7 days. After a washout period of at least 7 days, each subject received 20 mg/kg of 6R-BH4 daily for a total of 7 days. During the second stage of the study, subjects were monitored before dosing, at 24 and 72 hours after first dose, and on the 7th day of dosing at each of the two dose levels. Monitoring included a safety assessment as described above, measurement of serum blood amino acid (i.e, phenylalanine, tyrosine, and tryptophan) levels and evaluation of phenylalanine and tyrosine oral intake. Subjects were instructed to continue their usual diet without any modification, and to record daily intake of food and beverages throughout the study.
Of those 14 patients, 10 (71%) responded favorably to 10 mg/kg/day. […] The individual blood Phe responses to multiple doses of 10 mg/kg BH4 are shown in 11 adults (FIG. 17) and 9 children (FIG. 19). The individual blood Phe responses to multiple doses of 20 mg/kg BH4 are shown in 11 adults (FIG. 18) and in 9 children (FIG. 20).

[3] = Schircks dihydrochloride salt, oral tablets; cited from earlier work
[4] = room temperature; cited from earlier work
[5] = Storage stability of the polymorph form of BH4×2HCl, quality checked by HPLC; assay type: physicochemical; conditions: minigrip bag, 40° C., 75% relative humidity
Experimental: The polymorph forms of BH4 described in the Moser Applications are a very stable crystalline form of the drug. The polymorph form can be easily filtered off, dried and ground to particle sizes desired for pharmaceutical formulations. These outstanding properties renders this polymorph form especially feasible for pharmaceutical application. The stability of the polymorph form of BH4 was determined after the BH4×2HCl (the polymorph form) had been stored for 8 months in a minigrip bag at 40° C. and 75% relative humidity. Quality was checked in different intervals throughout the 8 month period by HPLC.

[6] = for hygroscopicity / water adsorbed (content): dihydrochloride; for water adsorbed (content): released on heating at 10° C./minute

SMILES: C[C@H](O)[C@H](O)[C@H]1CNc2nc(N)[nH]c(=O)c2N1 [6R-BH4, (6R)-5,6,7,8-tetrahydrobiopterin]
blood Phe decline from baseline ([1]; single oral dose 10 mg/kg): 10%±0.26%
blood Phe mean decline from baseline ([1]; single oral dose 20 mg/kg): 17%±0.28%
blood Phe mean decline from baseline ([1]; single oral dose 40 mg/kg): 27%±0.25%
responders to 20 mg/kg who also responded to the lower dose (30% or greater reduction in blood Phe) ([2]; 10 mg/kg/day, 10 of the 14 responders): 71%
patients with sustained decrease in blood Phe concentration (responsive = decline of 30%) ([2]; 20 mg/kg daily, 14/20 patients): 70 % of the patients
increase in blood tyrosine from baseline, some patients ([2]; 10 and 20 mg/kg daily, some but not all patients): > 80%
half-life [3]: approximately 3.5 hours
shelf-life [4]: < 8 h

HPLC [% area] ([5]; 0 months (at the beginning)): 98.4 % area
HPLC [% area] ([5]; after 1 month): 98.3 % area
HPLC [% area] ([5]; after 1 week): 99.4 % area
HPLC [% area] ([5]; after 3 months): 99.1 % area
HPLC [% area] ([5]; after 8 months): 98.1 % area
SMILES: C[C@H](O)[C@H](O)[C@H]1CNc2nc(N)[nH]c(=O)c2N1.Cl.Cl [BH4×2HCl, (6R)-L-erythro-tetrahydrobiopterin dihydrochloride]

hygroscopicity [6]: slightly hygroscopic
water adsorbed (content) [6]: about 2.0 percent by weight
SMILES: C[C@H](O)[C@H](O)[C@H]1CNc2nc(N)[nH]c(=O)c2N1.Cl.Cl [Polymorph K, (6R)-L-erythro-tetrahydrobiopterin dihydrochloride]

hygroscopicity [6]: slightly hygroscopic
SMILES: C[C@H](O)[C@H](O)[C@H]1CNc2nc(N)[nH]c(=O)c2N1.Cl.Cl [Polymorph B, (6R)-L-erythro-tetrahydrobiopterin dihydrochloride]

hygroscopicity [6]: slightly hygroscopic
SMILES: C[C@H](O)[C@H](O)[C@H]1CNc2nc(N)[nH]c(=O)c2N1.Cl.Cl [polymorph J, (6R)-L-erythro-tetrahydrobiopterin dihydrochloride]

hygroscopicity [6]: slightly hygroscopic
water adsorbed (content) [6]: about 3 percent by weight
phase equilibration test of suspensions: form after filtration and air drying ([6]; tetrahydrofuran or tertiary-butyl methyl ether, five days and 18 hours respectively, under nitrogen, room temperature): unchanged polymorph form A
SMILES: C[C@H](O)[C@H](O)[C@H]1CNc2nc(N)[nH]c(=O)c2N1.Cl.Cl [Polymorph A, (6R)-L-erythro-tetrahydrobiopterin dihydrochloride]

hygroscopicity ([6]; hydrate form C): slightly hygroscopic
SMILES: C[C@H](O)[C@H](O)[C@H]1CNc2nc(N)[nH]c(=O)c2N1.Cl.Cl [Hydrate form C, (6R)-L-erythro-tetrahydrobiopterin dihydrochloride]

hygroscopicity ([6]; hydrate form D): slightly hygroscopic
SMILES: C[C@H](O)[C@H](O)[C@H]1CNc2nc(N)[nH]c(=O)c2N1.Cl.Cl [hydrate D, (6R)-L-erythro-tetrahydrobiopterin dihydrochloride]

hygroscopicity [6]: non-hygroscopic
SMILES: C[C@H](O)[C@H](O)[C@H]1CNc2nc(N)[nH]c(=O)c2N1.Cl.Cl [Form E, (6R)-L-erythro-tetrahydrobiopterin dihydrochloride]

hygroscopicity [6]: slightly hygroscopic
water adsorbed (content) [6]: about 3 percent by weight
SMILES: C[C@H](O)[C@H](O)[C@H]1CNc2nc(N)[nH]c(=O)c2N1.Cl.Cl [Polymorph F, (6R)-L-erythro-tetrahydrobiopterin dihydrochloride]

From patent US9433624B2, “Methods and compositions for the treatment of metabolic disorders” (BIOMARIN PHARMACEUTICAL INC., priority 2003, dated 2016)
